Data as given in patent publication US8906925B2, “Pyrido[4,3-B]indoles containing rigid moieties” (Medivation Technologies, Inc., priority 2008, dated 2014).
Read-outs that look alike come from different tables or passages of the source.

What was measured:
[1] = target: T1, human dopamine D2L receptor (Homo sapiens, UniProt P14416); assay: Aequorin functional assay, dopamine D2L (CHO-K1); type: cell-based; set-up: host or cells: CHO-K1 co-expressing mitochondrial apoaequorin and Gα16; conditions: for inhibition at 0.005 µM / inhibition at […] / inhibition at 0.05 µM / inhibition at 0.5 µM / inhibition at 5 µM / inhibition at 15 µM: CHO-K1; for inhibition at 0.005 µM: Antagonist concentration 5 nM; for inhibition at 0.05 µM: Antagonist concentration 50 nM; for inhibition at 0.5 µM: Antagonist concentration 500 nM; for inhibition at 5 µM: Antagonist concentration 5000 nM; for inhibition at 15 µM: Antagonist concentration 15000 nM
Source text: (§1) To study the functional activity of compounds of the invention on the human recombinant dopamine D2L with Aequorin, GTPγS and cAMP functional assays and on the human recombinant serotonin 5-HT2A receptor with Aequorin, CHO-K1 cell lines expressing D2L or 5-HT2A recombinant receptor, mitochondrial apoaequorin and Gα16 were used for the Aequorin assay. CHO-K1 cell line expressing the recombinant D2L receptor was used for the cAMP assay and was amplified to prepare membranes used for the GTPγS assay.
(§2) Cells were incubated at room temperature for at least 4 h with Coelenterazine h (Molecular Probes). Dose response curves with reference compounds were performed before testing the compounds of the invention. D2L reference agonist and antagonist were quinpirol (Tocris, 1061) and haloperidol (Tocris, 0931), respectively. […] For agonist testing, 50 μL of cell suspension were injected on 50 μL of test compound or reference agonist plated in a 96-well plate. The resulting emission of light was recorded using the Hamamatsu Functional Drug Screening System 6000 (FDSS 6000). Following an incubation of 15 min after the first injection, 100 μL of reference agonist at a concentration corresponding to its EC80 was injected on the 100 μL of the mixture of cell suspension and test compound, for antagonist testing. The resulting emission of light was recorded using the same luminometer as for agonist testing. To standardize the emission of recorded light (determination of the “100% signal”) across plates and across different experiments, some of the wells contained 100 μM digitonin or a saturating concentration of ATP (20 μM). Plates also contained the reference agonist at a concentration equivalent to the EC100 and EC80 obtained during the test validation.

[2] = target: T1, human dopamine D2L receptor; assay: cAMP functional assay, dopamine D2L (CHO-K1, HTRF); type: cell-based; set-up: host or cells: CHO-K1 co-expressing mitochondrial apoaequorin and Gα16; conditions: for inhibition at 0.005 µM: antagonist concentration 5 nM; for inhibition at 0.05 µM: antagonist concentration 50 nM; for inhibition at 0.5 µM: antagonist concentration 500 nM; for inhibition at 5 µM: antagonist concentration 5000 nM; for inhibition at 15 µM: antagonist concentration 15000 nM
Source text: as §1
The test was performed in 96 well plates. For agonist testing, 12 μL of cells (2,500 cells/well) were mixed with 6 μL of increasing concentrations of test compound or reference agonist and 6 μL of Forskolin […] (Calbiochem, cat n^o 344270). For antagonist testing, 12 μL of cells (2,500 cells/well) were mixed with 6 μL of test compound or reference antagonist at increasing concentrations. After incubation of 10 min at room temperature, 6 μL of a mix of Forskolin […] final concentration and the reference agonist at a final concentration corresponding to the EC80 were added. The plates were then incubated for 30 min at room temperature.

[3] = target: human recombinant serotonin 5-HT2A receptor (Homo sapiens, UniProt P28223); assay: Aequorin functional assay, serotonin 5-HT2A (CHO-K1); type: cell-based; set-up: host or cells: CHO-K1 cells co-expressing mitochondrial apoaequorin and Gα16
Source text: as §1, §2

Sprague Dawley rats = assay: Subchronic PCP-induced social interaction deficits; type: in vivo, rat
Source text: Phencyclidine (PCP) administered to humans as well to experimental animals induces full-spectrum of schizophrenia symptoms, including negative symptoms and cognitive deficits. A major symptom of schizophrenia is considered to be social isolation/withdrawal as part of the cluster of negative symptoms. Subchronic treatment with PCP in rats leads to the development of clear signs of social withdrawal as measured by deficits in the interaction time with a cage intruder rat.
Male Sprague Dawley rats (˜150 g on arrival) from Harlan (Indiana) were used in this study. Upon receipt, rats were group housed in OPTI rats ventilated cages. Rats were housed in groups of 2-3/cage for the remainder of the study. During the period of acclimation, rats were examined on a regular basis, handled, and weighed to assure adequate health and suitability. Rats were maintained on a 12/12 light/dark cycle with the light on at 7:00 a.m. The room temperature was maintained between 20 and 23° C. with a relative humidity maintained between 30% and 70%. Chow and water were provided ad libitum for the duration of the study. Animals were randomly assigned across treatment groups and balanced by age. Animals were not disturbed between test days.
The following compounds were used. 1) Compound No. 88 or 90 (0.3, 1 and 3 mg/kg; p.o.) was dissolved in 3% Tween and PBS and administered 30 min prior to test; 2) PCP (2 mg/kg; s.c.) was dissolved in saline and administered twice daily for 5 days prior to test day; 3) Clozapine (2.5 mg/kg; i.p.) was dissolved in 5% PEG:5% Tween 80 in saline and administered 30 min. prior to test. All compounds were administered at a dose volume of 1 mL/kg.
For five days prior to test, rats were injected twice daily with either PCP (2 mg/kg; s.c) or saline (s.c). On day 6 and following a 30 min pretreatment with vehicle, clozapine or Compound No. 90, a pair of rats, unfamiliar to each other, receiving the same treatment were placed in a white plexiglas open field arena (24″×17″×8″) and allowed to interact with each other for 6 min. Social interactions (‘SI’) included: sniffing the other rat; grooming the other rat; climbing over or under or around the other rat; following the other rat; or exploring the ano-genital area of the other rat. Passive contact and aggressive contact were not considered a measure of social interaction. The time the rats spent interacting with each other during the 6 min test was recorded by a trained observer. The social interaction chambers were thoroughly cleaned between the different rats.
Data were analyzed by analysis of variance (ANOVA) followed by post-hoc analysis (e.g., Fischer, Dunnett) when appropriate. An effect was considered significant if p<0.05.

[4] = Antagonist concentration 150 nM
[5] = Antagonist concentration 1500 nM
[6] = antagonist concentration 150 nM
[7] = antagonist concentration 1500 nM
[8] = CHO-K1, read-out: 5-HT2A Antagonist % Inhibition (Aequorin)

T1 sequence (P14416 whole entry): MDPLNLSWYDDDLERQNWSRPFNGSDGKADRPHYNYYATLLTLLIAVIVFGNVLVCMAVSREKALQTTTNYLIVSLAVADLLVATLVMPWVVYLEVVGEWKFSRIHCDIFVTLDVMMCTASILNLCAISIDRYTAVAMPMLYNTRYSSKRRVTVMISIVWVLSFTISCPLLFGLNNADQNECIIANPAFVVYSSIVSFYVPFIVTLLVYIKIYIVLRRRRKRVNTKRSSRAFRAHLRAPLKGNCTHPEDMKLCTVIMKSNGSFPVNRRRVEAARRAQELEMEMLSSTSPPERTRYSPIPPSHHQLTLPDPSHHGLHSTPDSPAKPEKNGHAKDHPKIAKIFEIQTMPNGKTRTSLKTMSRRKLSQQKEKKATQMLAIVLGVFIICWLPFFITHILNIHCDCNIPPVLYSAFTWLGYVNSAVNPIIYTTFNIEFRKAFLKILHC
Chain of human recombinant serotonin 5-HT2A receptor (P28223 whole entry): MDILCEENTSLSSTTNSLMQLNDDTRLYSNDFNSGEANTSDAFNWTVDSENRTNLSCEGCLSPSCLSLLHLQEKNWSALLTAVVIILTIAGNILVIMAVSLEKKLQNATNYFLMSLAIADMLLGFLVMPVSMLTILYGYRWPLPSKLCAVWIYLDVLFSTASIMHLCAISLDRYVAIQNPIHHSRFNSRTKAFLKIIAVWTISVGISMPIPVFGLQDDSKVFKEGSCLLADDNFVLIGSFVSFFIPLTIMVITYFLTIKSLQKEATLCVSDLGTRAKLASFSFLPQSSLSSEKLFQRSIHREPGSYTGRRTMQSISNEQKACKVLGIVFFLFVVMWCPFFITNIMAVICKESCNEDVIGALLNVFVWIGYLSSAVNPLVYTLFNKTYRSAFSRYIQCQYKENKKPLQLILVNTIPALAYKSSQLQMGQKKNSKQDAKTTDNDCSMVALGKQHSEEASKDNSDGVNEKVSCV

Row | Compound | D2L Agonist % Activation (Aequorin) ([1]; Agonist concentration 10 nM) [%] | D2L Agonist % Activation (Aequorin) ([1]; Agonist concentration 30 nM) [%] | D2L Agonist % Activation (Aequorin) ([1]; Agonist concentration 100 nM) [%] | D2L Agonist % Activation (Aequorin) ([1]; Agonist concentration 300 nM) [%] | D2L Agonist % Activation (Aequorin) ([1]; Agonist concentration 1000 nM) [%] | D2L Agonist % Activation (Aequorin) ([1]; Agonist concentration 3000 nM) [%] | D2L Agonist % Activation (Aequorin) ([1]; Agonist concentration 10000 nM) [%] | D2L Agonist % Activation (Aequorin) ([1]; Agonist concentration 30000 nM) [%] | inhibition at 0.005 µM [1] [%] | inhibition at […] ([1]; Antagonist concentration 15 nM) [%] | inhibition at 0.05 µM [1] [%] | inhibition at […] [1, 4] [%] | inhibition at 0.5 µM [1] [%] | inhibition at […] [1, 5] [%] | inhibition at 5 µM [1] [%] | inhibition at 15 µM [1] [%] | inhibition at 0.005 µM [2] [%] | inhibition at […] ([2]; antagonist concentration 15 nM) [%] | inhibition at 0.05 µM [2] [%] | inhibition at […] [2, 6] [%] | further results
1 | C/C(=C\n1c2c(c3cc(Cl)ccc31)CN(C)CC2)c1ccc(F)cc1 [Compound 83, (E)-8-chloro-5-(2-(4-fluorophenyl)prop-1-enyl)-2,3,4,5-tetrahydro-2-methyl-1H-pyrido[4,3-b]indole] | 2.43 | 0.68 | 1.26 | 0.92 | −0.12 | 0.00 | 6.32 | 84.25 | 93.5 | 96.4 | 96.8 | 96.8 | 96.8 | 96 | 96 | 92.3 | 75.5 | 97.8 | 98.2 | 104 | inhibition at 0.5 µM [2]: 106%; inhibition at […] [2, 7]: 107%; inhibition at 5 µM [2]: 106%; inhibition at 15 µM [2]: 111%; inhibition at 0.005 µM ([3]; CHO-K1, Antagonist concentration 5 nM, read-out: 5-HT2A Antagonist % Inhibition (Aequorin)): 85.4%; inhibition at […] ([3]; CHO-K1, Antagonist concentration 15 nM): 96.6%; inhibition at 0.05 µM ([3]; CHO-K1, Antagonist concentration 50 nM, read-out: 5-HT2A Antagonist % Inhibition (Aequorin)): 98.5%; inhibition at […] ([3]; CHO-K1, Antagonist concentration 150 nM): 98.7%; inhibition at 0.5 µM ([3]; CHO-K1, Antagonist concentration 500 nM, read-out: 5-HT2A Antagonist % Inhibition (Aequorin)): 98.8%; inhibition at […] ([3]; CHO-K1, Antagonist concentration 1500 nM): 98.9%; inhibition at 5 µM ([3]; CHO-K1, Antagonist concentration 5000 nM, read-out: 5-HT2A Antagonist % Inhibition (Aequorin)): 97.8%; inhibition at 15 µM ([3]; CHO-K1, Antagonist concentration 15000 nM, read-out: 5-HT2A Antagonist % Inhibition (Aequorin)): 97%
2 | C/C(=C\n1c2c(c3cc(C)ccc31)CN(C)CC2)c1ccncc1 [Compound 88, (E)-2,3,4,5-tetrahydro-2,8-dimethyl-5-(2-(pyridin-4-yl)prop-1-enyl)-1H-pyrido[4,3-b]indole] | – | – | – | – | – | – | – | – | – | – | – | – | – | – | – | – | – | – | – | – | PCP-induced decrease of social interaction time (Sprague Dawley rats; 0.3, 1 and 3 mg/kg p.o., 30 min prior to test): attenuated
3 | C/C(=C\n1c2c(c3cc(Cl)ccc31)CN(C)CC2)c1ccncc1 [Compound 90, (E)-8-chloro-2,3,4,5-tetrahydro-2-methyl-5-(2-(pyridin-4-yl)prop-1-enyl)-1H-pyrido[4,3-b]indole] | 0.95 | 0.25 | −0.23 | −0.24 | −0.48 | −1.20 | −0.78 | −0.92 | 95.5 | 97.3 | 93.5 | 96.8 | 97.9 | 97.2 | 97.4 | 96.1 | 84.1 | 91.7 | 94.7 | 94 | PCP-induced decrease of social interaction (Sprague Dawley rats; 1 mg/kg p.o., 30 min prior to test): fully reversed; sedation in the home cage during pretreatment time (Sprague Dawley rats; 3 mg/kg p.o.): Mild sedation; deficits in social interaction time induced by chronic PCP (Sprague Dawley rats; 0.3 and 3 mg/kg p.o., did not reach control levels (partial reversal)): significantly attenuated; inhibition at 0.5 µM [2]: 93.7%; inhibition at […] [2, 7]: 100%; inhibition at 5 µM [2]: 100%; inhibition at 15 µM [2]: 102%; 5-HT2A Agonist % Activation (Aequorin) ([3]; Agonist concentration 10 nM): 0.62%; 5-HT2A Agonist % Activation (Aequorin) ([3]; Agonist concentration 30 nM): 0.26%; 5-HT2A Agonist % Activation (Aequorin) ([3]; Agonist concentration 100 nM): 0.27%; 5-HT2A Agonist % Activation (Aequorin) ([3]; Agonist concentration 300 nM): 0.18%; 5-HT2A Agonist % Activation (Aequorin) ([3]; Agonist concentration 1000 nM): 0.11%; 5-HT2A Agonist % Activation (Aequorin) ([3]; Agonist concentration 3000 nM): 0.04%; 5-HT2A Agonist % Activation (Aequorin) ([3]; Agonist concentration 10000 nM): 0.02%; 5-HT2A Agonist % Activation (Aequorin) ([3]; Agonist concentration 30000 nM): 0.49%; inhibition at 0.005 µM [3, 8]: 73%; inhibition at 0.05 µM [3, 8]: 98.5%; inhibition at 0.5 µM [3, 8]: 98.4%; inhibition at 5 µM [3, 8]: 98.5%; inhibition at 15 µM [3, 8]: 97.6%
